5 molecules from patent US20230043863A1, “HETEROAROMATIC DERIVATIVES FOR USE AS REGULATOR, PREPARATION METHOD THEREFOR AND USE THEREOF” (JIANGSU HANSOH PHARMACEUTICAL GROUP CO., LTD., priority 2018, published 2023) can be followed below.

The target in data set [1] is JAK2 (Homo sapiens, UniProt O60674). The data set can be described thus: JAK kinase activity inhibition, TR-FRET (JAK2). It counts as biochemical. The following applies: TR-FRET kinase assay. The method, then: Experimental objective: The objective of this test is to test the inhibitory effect of the compound on JAK kinase activity.
Experimental method: the fluorescence resonance energy transfer (TR-FRET) method was used to test the inhibitory effect of the compound on JAK kinase activity, and the half inhibitory concentration IC50 of the compound on JAK kinase activity was obtained.
Kinase reaction was carried out in a white 384-well plate (PerkinElmer). 1-5 μL of different concentrations of the compound diluted with DMSO and ddH2O was added into each well, and 1-5 μL of the corresponding solvent was added to the positive control wells, followed by addition of 0.1-20 nM JAK kinase solution diluted with 1-5 μL of kinase buffer (HEPES 50-250 mM, MgCl2 5-20 mM, etc.) was added to each well. 1-5 μL of kinase buffer was added to the negative control well. 1-5 μL of substrate mixture containing peptide substrate and ATP was added. The plate was incubated at room temperature for 0.5-5 hours. […], EDTA and detection solution containing labeled antibody was added, and then the plate was incubated at room temperature for another 1-24 hours. The fluorescence signal value at about 620 nm and 665 nm of each well was measured by BioTek Synergy H1 plate reader, and the inhibition rate was calculated by the fluorescence signal value. According to the inhibition rate of different concentrations, the IC50 of the compound was obtained by curve fitting.
The percentage inhibition data of the wells treated with the compound was calculated with the positive control wells (DMSO control wells) and negative control wells (no kinase added) on the plate {% inhibition rate=100-[(test compound value-negative control value)]/(Positive control value-negative control value)×100}. IC50 value was calculated by using GraphPad prism to fit the data of different concentrations and corresponding percentage inhibition rates to a 4-parameter non-linear logic formula.

A short description of data set [2]: Balb/C mouse pharmacokinetics (plasma, colon, ileum). The class given is in vivo. To be noted: male, po, Balb/C mice, p.o. 5 mg/kg; for Cmax: read-out: Blood concentration Cmax; for AUC(0-t): read-out: Curve area AUC0-t; for AUC(0-inf): read-out: Curve area AUC0-∞; for half-life: read-out: Half life period t1/2 (converted); for MRT: read-out: Mean detention time MRT; for Tmax: read-out: Time to peak tmax. The source says:
Balb/C mouse was used as the test animal, the pharmacokinetic behavior in mice (plasma and colon, ileum tissue) was studied after oral administering the embodiment 1, embodiment 60, embodiment 169, embodiment 170, embodiment 171, embodiment 179, embodiment 191, embodiment 213, embodiment 214, embodiment 237, embodiment 238, embodiment 244, embodiment 246, embodiment 247, embodiment 257, embodiment 260, embodiment 262, embodiment 263, embodiment 267, embodiment 277, embodiment 278, embodiment 279, embodiment 288, embodiment 295, embodiment 299 and embodiment 301 at a dose of 5 mg/kg. After analyzing the drug concentration in the colon and ileum, the ratio of the drug concentration in the colon to that in ileum, and the ratio of the drug concentration in the colon to that in the plasma, the compounds with excellent PK were selected for further research.
12 Balb/C mice in each group, male, Shanghai Jiesjie Experimental Animal Co., Ltd., animal production license number (SCXK (Shanghai) 2013-0006 N0.311620400001794).
12 Balb/C mice in each group, male; p.o. after one night fast; the dose was 5 mg/kg; the administration volume was 10 mL/kg.
At 0, 0.5, 1, 2, 3, 5 and 7 hours before and after the administration, the mice were executed by CO2 and 0.2 mL of blood was collected from the heart, placed in an EDTA-K2 test tube, and centrifuged at 6000 rpm at 4° C. for 6 minutes to separate the plasma, which was then stored at −80° C. The ileum was taken close to the cecum end with a length of about 4-5 cm, and the colon was also taken close to the cecum end with a length of about 2-3 cm, weighed and placed in a 2 mL centrifuge tube, then stored at −80° C.
1) 40 uL of plasma sample was precipitated by adding 160 uL of acetonitrile, mixed and centrifuged at 3500×g for 5-20 minutes.
2) 30 μL of plasma and intestinal homogenate sample were precipitated by adding 90 of acetonitrile containing internal standard (100 ng/mL), mixed and centrifuged at 13000 rpm for 8 minutes.
3) 70 μL of the supernatant solution after treatment was collected and 70 μL of water was added thereto, vortexed and mixed for 10 minutes, and then 20 μL was collected to analyze the concentration of the test compound by LC/MS/MS. LC/MS/MS analysis instrument: AB Sciex API 4000 Qtrap.
Liquid phase conditions: Shimadzu LC-20AD Pump
Chromatographic column: Agilent ZORBAX XDB-C18 (50×2.1 mm, 3.5 μm) mobile phase: 0.1% formic acid aqueous solution as A solution, acetonitrile as B solution
Elution time: 0-4.0 minutes, the eluent is as follows:
The main pharmacokinetic parameters were calculated with WinNonlin 6.1, and the results of mouse pharmacokinetic experiments are shown in Table 3:
NA refers to none detected or not being tested (the detection limit of blood concentration was 1 ng/mL, when the Cmax in the blood test is NA, then NA in the blood test index refers to none detected; when the Cmax in the blood test is higher than the quantitative limit 1 ng/mL, then NA in the blood test index refers to not being tested; NA in the tissues (colon and ileum) refers to not being tested).

Data set [3] has as its target JAK1 (Homo sapiens, UniProt P23458). Put plainly: JAK kinase activity inhibition, TR-FRET (JAK1). It counts as biochemical. To be noted: TR-FRET kinase assay. Put shortly:
(§1)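 Steps: compound dilutions added; JAK kinase (0.1-20 nM) in HEPES/MgCl2 buffer added; peptide substrate and ATP mix started the reaction, 0.5-5 h at room temperature; EDTA and labeled antibody added, 1-24 h further. IC50 derived from 620/665 nm signals by four-parameter nonlinear fitting.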

Data set [4] concerns the target TYK2 (Homo sapiens, UniProt P29597). The data set can be described thus: JAK kinase activity inhibition, TR-FRET (TYK2). The class given is biochemical. The following applies: TR-FRET kinase assay. Put shortly:
as §1

SMILES strings stand for the structures. Where two headings read alike, the source gives them in different places.

Sequence of JAK1 (P23458 whole entry): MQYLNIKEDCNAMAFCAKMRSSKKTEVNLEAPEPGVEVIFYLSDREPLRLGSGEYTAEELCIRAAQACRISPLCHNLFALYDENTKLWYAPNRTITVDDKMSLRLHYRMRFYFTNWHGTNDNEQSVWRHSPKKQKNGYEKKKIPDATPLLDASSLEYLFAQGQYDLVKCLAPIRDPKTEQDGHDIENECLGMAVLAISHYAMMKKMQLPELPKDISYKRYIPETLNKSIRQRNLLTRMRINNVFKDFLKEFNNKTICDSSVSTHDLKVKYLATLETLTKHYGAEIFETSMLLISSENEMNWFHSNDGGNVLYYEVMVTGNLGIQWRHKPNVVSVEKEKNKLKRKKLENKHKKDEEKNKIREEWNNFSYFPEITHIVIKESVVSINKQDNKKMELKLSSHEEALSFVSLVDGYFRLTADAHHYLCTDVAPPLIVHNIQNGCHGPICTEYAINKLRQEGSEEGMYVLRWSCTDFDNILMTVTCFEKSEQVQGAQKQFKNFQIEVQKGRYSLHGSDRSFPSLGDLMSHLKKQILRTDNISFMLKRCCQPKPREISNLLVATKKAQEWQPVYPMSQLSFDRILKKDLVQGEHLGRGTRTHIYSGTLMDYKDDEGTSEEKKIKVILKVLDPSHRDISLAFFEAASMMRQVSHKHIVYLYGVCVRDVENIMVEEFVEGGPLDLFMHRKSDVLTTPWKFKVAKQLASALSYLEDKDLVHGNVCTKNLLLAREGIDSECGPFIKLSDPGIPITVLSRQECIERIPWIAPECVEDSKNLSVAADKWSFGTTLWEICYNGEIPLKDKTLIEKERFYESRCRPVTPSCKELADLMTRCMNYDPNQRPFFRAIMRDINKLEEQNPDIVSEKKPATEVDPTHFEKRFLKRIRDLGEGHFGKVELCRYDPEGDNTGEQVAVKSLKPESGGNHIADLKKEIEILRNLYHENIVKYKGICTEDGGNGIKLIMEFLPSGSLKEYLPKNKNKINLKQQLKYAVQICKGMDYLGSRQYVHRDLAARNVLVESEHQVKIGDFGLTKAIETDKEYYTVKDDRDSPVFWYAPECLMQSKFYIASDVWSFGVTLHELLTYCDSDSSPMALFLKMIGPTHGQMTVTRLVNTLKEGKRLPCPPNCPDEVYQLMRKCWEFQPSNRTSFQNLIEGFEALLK
Sequence of TYK2 (P29597 whole entry): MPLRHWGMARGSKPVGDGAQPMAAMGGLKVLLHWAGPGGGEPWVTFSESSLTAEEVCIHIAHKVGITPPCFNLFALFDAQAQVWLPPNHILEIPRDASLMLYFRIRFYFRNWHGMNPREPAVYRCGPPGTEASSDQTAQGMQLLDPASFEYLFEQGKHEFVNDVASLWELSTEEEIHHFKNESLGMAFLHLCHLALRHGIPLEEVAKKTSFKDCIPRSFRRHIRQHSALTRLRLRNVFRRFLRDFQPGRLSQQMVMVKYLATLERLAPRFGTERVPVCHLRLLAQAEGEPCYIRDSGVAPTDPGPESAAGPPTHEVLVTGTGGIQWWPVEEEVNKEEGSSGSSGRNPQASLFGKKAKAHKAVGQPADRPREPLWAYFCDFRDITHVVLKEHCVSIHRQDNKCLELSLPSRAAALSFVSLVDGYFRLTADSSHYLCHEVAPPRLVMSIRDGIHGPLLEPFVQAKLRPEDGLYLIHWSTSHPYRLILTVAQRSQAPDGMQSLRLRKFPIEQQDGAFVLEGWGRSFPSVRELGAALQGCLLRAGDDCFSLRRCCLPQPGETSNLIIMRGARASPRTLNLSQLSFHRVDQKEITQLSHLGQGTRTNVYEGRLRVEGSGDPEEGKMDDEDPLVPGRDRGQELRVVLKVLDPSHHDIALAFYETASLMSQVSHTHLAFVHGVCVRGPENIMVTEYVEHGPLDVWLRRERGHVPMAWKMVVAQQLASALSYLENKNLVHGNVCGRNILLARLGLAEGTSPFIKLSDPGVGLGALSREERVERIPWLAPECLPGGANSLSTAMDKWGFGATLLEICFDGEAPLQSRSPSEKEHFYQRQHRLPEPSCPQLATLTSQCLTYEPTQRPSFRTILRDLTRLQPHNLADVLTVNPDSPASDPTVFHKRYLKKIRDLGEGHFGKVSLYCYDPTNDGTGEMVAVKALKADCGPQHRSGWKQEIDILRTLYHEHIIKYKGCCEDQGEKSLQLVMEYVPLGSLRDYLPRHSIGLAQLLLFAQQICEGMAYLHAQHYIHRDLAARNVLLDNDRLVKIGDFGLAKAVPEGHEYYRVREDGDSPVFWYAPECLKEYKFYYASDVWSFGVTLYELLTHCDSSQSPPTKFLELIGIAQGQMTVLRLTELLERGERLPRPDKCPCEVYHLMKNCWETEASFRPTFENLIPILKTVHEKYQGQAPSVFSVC
Sequence of JAK2 (O60674 whole entry): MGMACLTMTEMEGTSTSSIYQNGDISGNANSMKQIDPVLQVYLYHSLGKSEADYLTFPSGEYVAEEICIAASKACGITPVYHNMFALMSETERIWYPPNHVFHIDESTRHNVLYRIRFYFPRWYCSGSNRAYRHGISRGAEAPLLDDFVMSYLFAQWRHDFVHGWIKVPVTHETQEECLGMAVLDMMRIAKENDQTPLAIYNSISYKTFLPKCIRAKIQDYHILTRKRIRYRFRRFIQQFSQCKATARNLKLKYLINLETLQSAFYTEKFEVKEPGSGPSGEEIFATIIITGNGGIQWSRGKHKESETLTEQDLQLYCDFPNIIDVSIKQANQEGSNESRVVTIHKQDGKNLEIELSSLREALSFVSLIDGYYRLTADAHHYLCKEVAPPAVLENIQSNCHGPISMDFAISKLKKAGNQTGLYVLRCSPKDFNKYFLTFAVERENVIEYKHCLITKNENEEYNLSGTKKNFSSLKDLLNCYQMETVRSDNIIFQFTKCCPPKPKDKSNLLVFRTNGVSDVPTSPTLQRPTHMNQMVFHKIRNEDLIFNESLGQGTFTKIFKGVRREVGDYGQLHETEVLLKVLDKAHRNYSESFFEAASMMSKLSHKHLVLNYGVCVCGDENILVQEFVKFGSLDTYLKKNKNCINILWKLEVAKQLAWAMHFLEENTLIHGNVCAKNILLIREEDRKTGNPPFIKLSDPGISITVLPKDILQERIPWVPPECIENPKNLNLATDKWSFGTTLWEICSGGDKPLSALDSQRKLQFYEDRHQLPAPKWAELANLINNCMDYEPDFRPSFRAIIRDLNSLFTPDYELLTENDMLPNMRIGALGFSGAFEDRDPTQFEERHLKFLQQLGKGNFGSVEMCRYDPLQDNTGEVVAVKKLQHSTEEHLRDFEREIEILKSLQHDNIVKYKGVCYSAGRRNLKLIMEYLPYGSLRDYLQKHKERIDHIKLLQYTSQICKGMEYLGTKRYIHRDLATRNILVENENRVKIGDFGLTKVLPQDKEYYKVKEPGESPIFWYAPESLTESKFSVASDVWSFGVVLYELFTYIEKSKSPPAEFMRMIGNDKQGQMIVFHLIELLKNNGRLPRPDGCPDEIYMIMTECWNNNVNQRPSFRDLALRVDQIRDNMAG

In the case of `Cc1cc(Nc2nc(N[C@@H]3C[C@H]4CC[C@@H](C3)N4CCC#N)nc3cc(Cl)ccc23)n[nH]1` [Embodiment 171, 3-((3-exo)-3-((7-chloro-4-((5-methyl-1H-pyrazol-3-yl)amino)quinazolin-2-yl)amino)-8-azabicyclo[3.2.1]oct-8-yl)propionitrile], the IC50 in data set [1] is 0.67 nM. Further, in data set [2] (plasma, blood), the Cmax worked out at 0.00891 µg/mL, the AUC(0-t) was 0.0234 µg·h/mL, the AUC(0-inf) stood at 0.0267 µg·h/mL and the half-life is 1.93 h. In addition, in data set [2] (plasma, blood), the MRT came out at 3.05 h and the Tmax amounted to 2 h. Besides, in data set [2] (colon), the Cmax was 0.438 µg/mL, the AUC(0-t) is 2.01 µg·h/mL, the MRT worked out at 4.24 h and the Tmax was determined as 3 h. Moreover, in data set [2] (ileum), the Cmax was 17 µg/mL, the AUC(0-t) was 79.8 µg·h/mL, the MRT came to 3.35 h and the time to peak (Tmax) amounted to 3 h. For the same molecule, in data set [3], the IC50 is 0.85 nM. Moreover, the 50% inhibitory concentration (IC50) in data set [4] is 0.6 nM.
Take `Cc1cc(Nc2nc(N[C@@H]3C[C@H]4CCC[C@@H](C3)N4C(=O)c3ccccn3)nc3sccc23)n[nH]1` [Embodiment 260, ((3-exo)-3-((4-((5-methyl-1H-pyrazol-3-yl)amino)thieno[2,3-d]pyrimidin-2-yl)amino)-9-azabicyclo[3.3.1]non-9-yl)(pyridin-2-yl)methanone]: the IC50 in data set [1] stood at 0.36 nM. Moreover, in data set [2] (plasma, blood), the Cmax came out at 0.024 µg/mL, the AUC(0-t) was found to be 0.0273 µg·h/mL, the AUC(0-inf) was 0.0294 µg·h/mL and the half-life is 1.57 h. Also, in data set [2] (plasma, blood), the MRT is 1.37 h and the Tmax was 1 h. Further, in data set [2] (colon), the Cmax was 8.88 µg/mL, the AUC(0-t) worked out at 24.4 µg·h/mL, the MRT was determined as 3.39 h and the time to peak (Tmax) came out at 3 h. In data set [2] (ileum), the Cmax was found to be 9.08 µg/mL, the AUC(0-t) came out at 18.5 µg·h/mL, the AUC(0-inf) was found to be 18.7 µg·h/mL and the half-life is 1.01 h. For the same molecule, in data set [2] (ileum), the MRT was 1.57 h and the time of peak concentration (Tmax) was 1 h. The IC50 in data set [3] came to 0.19 nM. In addition, the 50% inhibitory concentration (IC50) in data set [4] was found to be 0.225 nM.
With `Cc1cc(Nc2nc(N(C)[C@@H]3C[C@H]4CCC[C@@H](C3)N4C(=O)CN3CCN(C)CC3)nc3sccc23)n[nH]1` [Embodiment 257, 1-((3-exo)-3-(methyl(4-((5-methyl-1H-pyrazol-3-yl)amino)thieno[2,3-d]pyrimidin-2-yl)amino)-9-azabicyclo[3.3.1]non-9-yl)-2-(4-methylpiperazin-1-yl)ethane-1-one], in data set [1], the IC50 came to 0.83 nM. Besides, in data set [2] (plasma, blood), the Cmax was found to be 0.0339 µg/mL, the AUC(0-t) came to 0.0647 µg·h/mL, the AUC(0-inf) amounted to 0.0648 µg·h/mL and the half-life was 1.22 h. Moreover, in data set [2] (plasma, blood), the MRT was found to be 2.18 h and the time of peak concentration (Tmax) worked out at 1 h. For the same molecule, in data set [2] (colon), the Cmax was 3.99 µg/mL, the AUC(0-t) was 12.3 µg·h/mL, the MRT amounted to 4.24 h and the Tmax was determined as 5 h. Also, in data set [2] (ileum), the Cmax came out at 25.8 µg/mL, the AUC(0-t) was found to be 104 µg·h/mL, the AUC(0-inf) is 123 µg·h/mL and the half-life was 1.98 h. Moreover, in data set [2] (ileum), the mean residence time (MRT) stood at 3.07 h and the Tmax worked out at 3 h. In data set [3], the concentration for half-maximal inhibition (IC50) is 0.07 nM. Also, the half-maximal inhibitory concentration (IC50) in data set [4] turned out to be 0.2 nM.
Take `Cc1cc(Nc2nc(N[C@@H]3C[C@H]4CC[C@@H](C3)N4CCC#N)nc3ccsc23)n[nH]1` [Embodiment 60, 3-((3-exo)-3-((4-((5-methyl-1H-pyrazol-3-yl)amino)thieno[3,2-d]pyrimidin-2-yl)amino)-8-azabicyclo[3.2.1]oct-8-yl)propionitrile]: in data set [2] (plasma, blood), the Cmax was 0.0103 µg/mL, the AUC(0-t) turned out to be 0.0311 µg·h/mL, the AUC(0-inf) came to 0.0329 µg·h/mL and the half-life is 1.41 h. Besides, in data set [2] (plasma, blood), the MRT is 2.58 h and the Tmax came to 2 h. Besides, in data set [2] (colon), the Cmax came to 2.31 µg/mL, the AUC(0-t) turned out to be 9.13 µg·h/mL, the MRT stood at 3.83 h and the Tmax was determined as 5 h. In data set [2] (ileum), the Cmax was 26.1 µg/mL, the AUC(0-t) came to 98 µg·h/mL, the AUC(0-inf) turned out to be 103 µg·h/mL and the half-life was 1.26 h. In data set [2] (ileum), the mean residence time (MRT) amounted to 2.49 h and the time to peak (Tmax) was 1 h. Also, the half-maximal inhibitory concentration (IC50) in data set [3] was determined as 0.12 nM. In addition, in data set [4], the concentration for half-maximal inhibition (IC50) turned out to be 0.46 nM.
For the molecule `Cc1cc(Nc2nc(N[C@@H]3C[C@H]4CC[C@@H](C3)N4CCC#N)nc3cc(Br)ccc23)n[nH]1` [Embodiment 170, 3-((3-exo)-3-((7-bromine-4-((5-methyl-1H-pyrazol-3-yl)amino)quinazolin-2-yl)amino)-8-azabicyclo[3.2.1]oct-8-yl)propionitrile], in data set [2] (plasma, blood), the Cmax was found to be 0.016 µg/mL, the AUC(0-t) amounted to 0.0367 µg·h/mL, the MRT was 4.13 h and the Tmax was 7 h. Besides, in data set [2] (colon), the Cmax is 4.32 µg/mL, the AUC(0-t) is 13 µg·h/mL, the MRT stood at 3.36 h and the Tmax amounted to 3 h. In addition, in data set [2] (ileum), the Cmax was 49.9 µg/mL, the AUC(0-t) stood at 118 µg·h/mL, the AUC(0-inf) was found to be 172 µg·h/mL and the half-life was 5.48 h. In data set [2] (ileum), the MRT turned out to be 2.19 h and the Tmax was determined as 1 h. In addition, the IC50 in data set [3] was 0.66 nM. Further, in data set [4], the IC50 was determined as 0.225 nM.
